# Laboratory results as given in patent US9605029B2, “Antibody-binding peptide” (NATIONAL INSTITUTE OF ADVANCED INDUSTRIAL SCIENCE AND …, priority 2013, dated 2017).
# Tested on: Fc region (Jackson ImmunoResearch Laboratories, Inc.) labeled with horseradish peroxidase (HRP)
# Assay: ELISA of recombinant phages displaying polypeptides (Example 2, 6)
# Assay type: binding, human
# Conditions: recombinant T7 phage displaying the polypeptide; absorbance at 415 nm; control 0.098
# Experimental: 6) In this section, it will be stated as an example that the binding activity of recombinant phages transformed by nucleic acids encoding amino acid sequences represented by SEQ ID NOs: 26, 27, 30 to 55, 57, 63 to 72 and 79 to 81 was measured by Enzyme Linked Immuno-Sorbent Assay (ELISA).
# DNA molecules encoding amino acid sequences of SEQ ID NOs: 26, 27, 30 to 55, 57, 63 to 72 and 79 to 81 were amplified by a polymerase chain reaction (PCR) using KOD DNA polymerase (TOYOBO) under the reaction conditions according to the accompanying manual. Each of the amplified DNA was digested with restriction enzymes EcoRI and HindIII, and ligated to the 3′ terminal of g10 gene on T7 phage genomic DNA. Ligation to T7 phage genomic DNA was performed by use of a sample attached to T7Select10-3 Cloning Kit (Novagen) under the reaction conditions and in accordance with the procedure described in T7Select (registered trade mark) System Manual. Using T7 phage genomic DNA ligated, T7 phage was packaged in a test tube by T7Select Packaging Kit (Novagen) under the reaction conditions in accordance with T7Select (registered trade mark) System Manual (Novagen). Subsequently, phage plaque was formed in accordance with T7Select (registered trade mark) System Manual (Novagen). From each of the plaques, a recombinant phage displaying the polypeptide was isolated. To MICROTEST (registered trade mark) 96 (BECTON, DICKINSON AND COMPANY), a culture solution (0.2 mL) of Escherichia coli BL5403 strain cultured in LB medium until O.D.600 reached 1.0 was poured to infect with the Escherichia coli cells each of the recombinant phages isolated from plaques and allowed to stand still 37° C. for 12 hours to proliferate phages. The culture solution (10 μL) containing these phages was diluted in 90 μL of TBS buffer (50 mM Tris-HCl, 150 mM NaCl, pH 7.4) to prepare measurement samples.
# The measurement samples were poured to MEDISORP 96 well microplate (Nunc) and allowed to stand still for one hour to allow the phage to physically adsorb to the plate. The supernatant was removed and SuperBlock (registered trade mark) T20 (TBS) Blocking Buffer (Thermo […]) (150 μL) was poured to the plate and allowed to stand still for one hour to block the surface of the plate. The plate was washed three times with TBS-T buffer (50 mM Tris-HCl, 150 mM NaCl, 0.1% Tween 20 (registered trade mark), pH 7.4). To the plate, TBS-T buffer (100 μL) containing an Fc region (Jackson ImmunoResearch Laboratories, Inc.) (0.2 μg/mL) labeled with horseradish peroxidase (HRP) was added and allowed to stand still for one hour. After the plate was washed three times with TBS-T buffer, ABTS One Component HRP Microwell Substrate (BioFX) (100 μL) was poured to the plate. The binding activity was detected through a […]. The absorbance at 415 nm (O.D.415) was measured by a microplate absorbance reader Sunrise R (TECAN GROUP LTD.). TBS-T buffer containing no phages was used as a negative control in a control experiment.
# ELISA results of the recombinant phages displaying polypeptides containing amino acid sequences represented by SEQ ID NOs: 26, 27 and 30 to 55 and the recombinant phages displaying polypeptides containing amino acid sequences represented by SEQ ID NOs: 57, 63 to 72 and 79 to 81 are shown in Table 5A and Table 5B, respectively.
row,Substance,O.D. 415
1,"57 (GPGISAFSPGRGVYDPETGTWYDAAWHLGELVWATYYDPETGTWEPDWQRMLGQ; IgG binding peptide, p17) [compound 57]",0.229
2,"63 (SNFVRSPSAWYDPETGTWYDAAWHLGELVWATYYDPETGTWEPDWQRMLGQ; IgG binding peptide, p2_2) [compound 63]",0.272
3,"64 (IPYGFPGRGEYDPETGTWYDAAWHLGELVWATYYDPETGTWEPDWQRMLGQ; IgG binding peptide, p4) [compound 64]",0.213
4,"65 (GPYNIPDSAVYDPETGTWYDAAWHLGELVWATYYDPETGTWEPDWQRMLGQ; IgG binding peptide, p5) [compound 65]",0.291
5,"66 (WPLNAPSSAFYDPETGTWYDAAWHLGELVWATYYDPETGTWEPDWQRMLGQ; IgG binding peptide, p13) [compound 66]",0.182
6,"67 (VPPRFSSSAQYDPETGTWYDAAWHLGELVWATYYDPETGTWEPDWQRMLGQ; IgG binding peptide, p14) [compound 67]",0.25
7,"68 (FLVGLHAGAVYDPETGTWYDAAWHLGELVWATYYDPETGTWEPDWQRMLGQ; IgG binding peptide, p15_2) [compound 68]",0.186
8,"69 (VVRVDHSSAVYDPETGTWYDAAWHLGELVWATYYDPETGTWEPDWQRMLGQ; IgG binding peptide, p20) [compound 69]",0.201
9,"70 (WMEFYPGRGVYDPETGTWYDAAWHLGELVWATYYDPETGTWEPDWQRMLGQ; IgG binding peptide, p26) [compound 70]",0.189
10,"71 (DGVGPGSRGVYDPETGTWYDAAWHLGELVWATYYDPETGTWEPDWQRMLGQ; IgG binding peptide, p27) [compound 71]",0.219
11,"72 (FVSSLPNSAMYDPETGTWYDAAWHLGELVWATYYDPETGTWEPDWQRMLGQ; IgG binding peptide, p28) [compound 72]",0.229
12,"79 (GSCKFSSSCHYDPETGTWYDAAWHLGELVWATYYDPETGTWEPDWQRMLGQ; IgG binding peptide, p24_2) [compound 79]",0.329
13,"80 (LIPPGGISPWYDPETGTWYDAAWHLGELVWATYYDPETGTWEPDWQRMLGQ; IgG binding peptide, p25_2) [compound 80]",0.215
14,"81 (LNDFLTPTAWYDPETGTWYDAAWHLGELVWATYYDPETGTWLPDWQTMAQK; IgG binding peptide, p31) [compound 81]",0.235

# Same assay, conditions: recombinant T7 phage displaying the polypeptide; absorbance at 415 nm; control 0.11
row,Substance,O.D. 415
1,"26 (DAAWHLGELVWATYYDPETGTWLPDWQTMAQK; IgG binding peptide, pep21) [compound 26]",0.43
2,"27 (DAAWHLGELVWATYYDPETGTWEPDWQRMLGQ; IgG binding peptide, pep24) [compound 27]",0.289
3,"30 (DAAWHLGELVWATYYDPETGTWEPDWKLMQRP; IgG binding peptide, pep7) [compound 30]",0.287
4,"31 (DAAWHLGELVWATYYDPETGTWQPDWDIMAGH; IgG binding peptide, pep25) [compound 31]",0.295
5,"32 (DAAWHLGELVWATYYDPETGTWLPDWDVMVRQ; IgG binding peptide, pep27) [compound 32]",0.352
6,"33 (DAAWHLGELVWATYYDPETGTWVPDWERMKQH; IgG binding peptide, pep31) [compound 33]",0.305
7,"34 (DAAWHLGELVWATYYDPETGTWEPDWSKMRPQ; IgG binding peptide, pep1) [compound 34]",0.281
8,"35 (DAAWHLGELVWATYYDPETGTWRPDWAVMATP; IgG binding peptide, pep2) [compound 35]",0.32
9,"36 (DAAWHLGELVWATYYDPETGTWKPDWRMMGVP; IgG binding peptide, pep3) [compound 36]",0.287
10,"37 (DAAWHLGELVWATYYDPETGTWLPDWDYMSSK; IgG binding peptide, pep4) [compound 37]",0.235
11,"38 (DAAWHLGELVWATYYDPETGTWMPDWDRMLRR; IgG binding peptide, pep5) [compound 38]",0.29
12,"39 (DAAWHLGELVWATYYDPETGTWTPDWNAMSQR; IgG binding peptide, pep6) [compound 39]",0.273
13,"40 (DAAWHLGELVWATYYDPETGTWQPDWKRMTSR; IgG binding peptide, pep10) [compound 40]",0.251
14,"41 (DAAWHLGELVWATYYDPETGTWQPDWGRMNSK; IgG binding peptide, pep12) [compound 41]",0.274
15,"42 (DAAWHLGELVWATYYDPETGTWAPDWNRMRDFNRSFREV; IgG binding peptide, pep29) [compound 42]",0.273
16,"43 (DAAWHLGELVWATYYDPETGTWVPDWDAMSSR; IgG binding peptide, pep15) [compound 43]",0.813
17,"44 (DAAWHLGELVWATYYDPETGTWIPDWTRMQTW; IgG binding peptide, pep16) [compound 44]",0.243
18,"45 (DAAWHLGELVWATYYDPETGTWKPDWQRMKLH; IgG binding peptide, pep17) [compound 45]",0.249
19,"46 (DAAWHLGELVWATYYDPETGTWLPDWSQMRPQ; IgG binding peptide, pep18) [compound 46]",0.243
20,"47 (DAAWHLGELVWATYYDPETGTWLPDWDTMTPR; IgG binding peptide, pep19) [compound 47]",0.255
21,"48 (DAAWHLGELVWATYYDPETGTWQPDWSVMKSL; IgG binding peptide, pep20) [compound 48]",0.373
22,"49 (DAAWHLGELVWATYYDPETGTWVPDWDTMHAAINRSFREV; Artificial Sequence, pep22; IgG binding peptide) [compound 49]",0.346
23,"50 (DAAWHLGELVWATYYDPETGTWIPDWRAMSQF; IgG binding peptide, pep23) [compound 50]",0.244
24,"51 (DAAWHLGELVWATYYDPETGTWLPDWNLMGQH; IgG binding peptide, pep26) [compound 51]",0.265
25,"52 (DAAWHLGELVWATYYDPETGTWRPDWARMEPM; IgG binding peptide, pep28) [compound 52]",0.25
26,"53 (DAAWHLGELVWATYYDPETGTWKPDWQVMSPVSNRSFREV; IgG binding peptide, pep29) [compound 53]",0.279
27,"54 (DAAWHLGELVWATYYDPETGTWQPDWEIMRPF; IgG binding peptide, pep30) [compound 54]",0.258
28,"55 (EAWHLGELVWATYYDPETGTWRPDWSRMSGR; IgG binding peptide, pep11_2) [compound 55]",0.252
